According to patent US9968633B2, “Stimuli responsive compositions for iron chelation” (WISCONSIN ALUMNI RESEARCH FOUNDATION, priority 2014, dated 2018):
“And” between values parts separate entries of the source, which are not always exact repeats. Identical values can stand only once. Counter-ions that a name gives are not always drawn.

What was measured:
[1] = system: J774A.1 cells; experiment: Cytotoxicity, resazurin assay, normal J774A.1 cells; assay type: cell-based; details: Mus musculus, J774.A1, 48 h, DFO equivalents, read-out: Concentration giving 50% cell viability
[2] = in vitro; details: mouse
Experimental: (§1) Mouse macrophage/monocyte cell line, J774A.1, was purchased from American Type Culture Collection (ATCC). Cells were seeded in 96-well plates at a density of 3,000 cells/well, cultured at 37° C., 5% CO2 with DMEM complete medium (supplemented with 10% (v/v) heat-inactivated FBS, 100 I.U./mL penicillin and 100 μg/mL streptomycin), and allowed to settle for 24 h. Cells were then treated with DFO or oxNG-DFO at equivalent DFO concentrations of 1 mM prepared by 1:3 serial dilutions.
(§2) Cell viability was measured with the metabolism-based resazurin assay. Briefly, the substrate resazurin was dissolved in cell culture medium at a concentration of 44 μM, added to each well (100 μl) and incubated at 37° C. for 4 h. The fluorescence was measured with excitation at 560 nm and emission at 590 nm, on a SpectraMax Gemini EM microplate reader. Readings from the wells without cells were used as Eblank, and the readings from control cells without treatment (Econtrol) represented 100% cell viability. The viability of treated cells at different concentrations can be calculated by the following equation: […]
(§3) Similarly, cytotoxicity was also evaluated in iron-overloaded J774A.1 cells as described above.
(§4) To evaluate the cytotoxicity of the nanogels, cells in complete DMEM medium were treated with equivalent amounts of free DFO or oxNG2-DFO ranging from 0.05-1000 μM and allowed to incubate for 48 h prior to evaluating cytotoxicity with a metabolism-based resazurin assay.

[3] = system: iron-overloaded J774A.1 cells; experiment: cells; details: Mus musculus, J774.A1, 48 h, read-out: Concentration giving 50% cell viability
Experimental: as §1, §2, §3, §4

[4] = system: iron-overloaded J774A.1 cells; experiment: Ferritin reduction assay in iron overloaded J774A.1 cells; assay type: cell-based, mouse; details: for Ferritin decrease: 48 h
Experimental: J774A.1 cells were seeded in 6-well plates at a density of 30,000 cell/well and allowed to settle for 24 h at 37° C., 5% CO2 with DMEM complete medium before treatment. […] Subsequently, cells were washed with PBS and treated with DFO or oxNG-DFO at both 10 μM and 50 μM for 48 h. […] After 48 h incubation with DFO or oxNG-DFO, cells were lysed with cell lysis buffer (150 mM NaCl, 10 mM Tris, 1% Triton X-100 and protease inhibitor cocktail, pH 7.4) and total protein concentration was measured with the BCA protein assay kit. Cellular ferritin concentration was measured with a mouse ferritin ELISA kit. The results are plotted as the ratio of ng of ferritin per μg total protein concentration.
Subsequently, iron-loaded cells were treated for 48 h with 10 μM or 50 μM free DFO or equivalent oxNG2-DFO.

[5] = system: Human umbilical vein endothelial cells (HUVEC); experiment: Cytotoxicity, resazurin assay, HUVEC; assay type: cell-based; details: 48 h, DFO equivalents, read-out: Concentration to inhibit 50% cell growth
Experimental: Human umbilical vein endothelial cells (HUVEC) were obtained from Lonza, Inc., and cultured at 37° C./5% CO2 in EGM-2 complete medium. For the cytotoxicity assay, cells were seeded into 96-well plates at a density of 3,000 cell/well and allowed to equilibrate for 2 days before treatment. […] Readings from the wells without cells were used as blanks (Eblank), and the readings taken from control cells without treatment (Econtrol) 1 represented 100% cell viability. The viability of treated cells at each concentration can be calculated by the following equation: Cell Viability=100×(Esample˜Eblank)/(Econtrol˜Eblank)%

Compound	IC50 [1] [µM]	viability at 48 h, 10 μM [2] [%]	viability at 48 h, 50 μM [2] [%]	IC50 [3] [µM]	Cellular ferritin level [4]	Ferritin decrease ([4]; 10 μM DFO or equivalent) [%]	Ferritin decrease ([4]; 50 μM DFO or equivalent) [%]	IC50 [5] [nM]	Cellular ferritin expression after iron loading [4] [ng/µg]
CC(=O)N(O)CCCCCNC(=O)CCC(=O)N(O)CCCCCNC(=O)CCC(=O)N(O)CCCCCN [DFO, Deferoxamine mesylate]	~10	~50	< 50	~15	5.33 ng/μg total protein and 2.84 ng/μg total protein	37.4	66.6	~2000	
Ferric ammonium citrate [FAC]									8.51
